The source of these data is patent US11248010B2, “Compounds, compositions, and methods for modulating CFTR” (Proteostasis Therapeutics, Inc., priority 2016, dated 2022).

The test concerns the target T1, ΔF508-CFTR (Homo sapiens, UniProt P13569, DEL508-508).
T1 construct: primary lung epithelial cells (hBEs) homozygous for the Cystic Fibrosis-causing ΔF508 mutation are differentiated; endogenous in cells; host or cells: primary human bronchial epithelial cells (hBEs) homozygous for ΔF508, differentiated at an air-liquid interface
The test can be described thus: Ussing measurements (CFTR activity assay). Type of test: cell-based. The settings on record: compound at 1 uM; activity relative to a corrector (VX-809 (3 uM)); primary lung epithelial cells (hBEs) homozygous for ΔF508; CFTRinh-172-inhibitable short-circuit current. As to the method: As discussed above, Ussing measurements are used to measure CFTR activity. In this method, primary lung epithelial cells (hBEs) homozygous for the Cystic Fibrosis-causing ΔF508 mutation are differentiated for a minimum of 4 weeks in an air-liquid interface on SnapWell filter plates prior to the Ussing measurements. Cells are apically mucus-washed for 30 minutes prior to treatment with compounds. The basolateral media is removed and replaced with media containing the compound of interest diluted to its final concentration from DMSO stocks. Treated cells are incubated at 37° C. and 5% CO2 for 24 hours. At the end of the treatment period, the cells on filters are transferred to the Ussing chamber and equilibrated for 30 minutes. The short-circuit current is measured in voltage clamp-mode (Vhold=0 mV), and the entire assay is conducted at a temperature of 36° C.-36.5° C. Once the voltages are stabilized, the chambers are clamped, and data is recorded by pulse readings every 5 seconds. Following baseline current stabilization, the following additions can be applied and the changes in current and resistance of the cells can be monitored:
1. Benzamil to the apical chamber to inhibit ENaC sodium channel.
2. Forskolin to both chambers to activate ΔF508-CFTR by phosphorylation.
3. VX-770 to the apical chamber to potentiate ΔF508-CFTR channel opening.
4. CFTRinh-172 to the apical chamber to inhibit ΔF508-CFTR Cl— conductance.
The inhibitable current (that current that is blocked by CFTRinh-172) is measured as the specific activity of the ΔF508-CFTR channel, and increases in response to compound in this activity over that observed in vehicle-treated samples are identified as the correction of ΔF508-CFTR function imparted by the compound tested.
(+ indicates activity <200% of a corrector (VX-809 (3 uM)) with compound at 1 uM; ++ indicates activity >200% of a corrector (VX-809 (3 uM)) with compound at 1 uM.

T1 sequence (P13569 with tags, fused parts or gaps DEL508-508): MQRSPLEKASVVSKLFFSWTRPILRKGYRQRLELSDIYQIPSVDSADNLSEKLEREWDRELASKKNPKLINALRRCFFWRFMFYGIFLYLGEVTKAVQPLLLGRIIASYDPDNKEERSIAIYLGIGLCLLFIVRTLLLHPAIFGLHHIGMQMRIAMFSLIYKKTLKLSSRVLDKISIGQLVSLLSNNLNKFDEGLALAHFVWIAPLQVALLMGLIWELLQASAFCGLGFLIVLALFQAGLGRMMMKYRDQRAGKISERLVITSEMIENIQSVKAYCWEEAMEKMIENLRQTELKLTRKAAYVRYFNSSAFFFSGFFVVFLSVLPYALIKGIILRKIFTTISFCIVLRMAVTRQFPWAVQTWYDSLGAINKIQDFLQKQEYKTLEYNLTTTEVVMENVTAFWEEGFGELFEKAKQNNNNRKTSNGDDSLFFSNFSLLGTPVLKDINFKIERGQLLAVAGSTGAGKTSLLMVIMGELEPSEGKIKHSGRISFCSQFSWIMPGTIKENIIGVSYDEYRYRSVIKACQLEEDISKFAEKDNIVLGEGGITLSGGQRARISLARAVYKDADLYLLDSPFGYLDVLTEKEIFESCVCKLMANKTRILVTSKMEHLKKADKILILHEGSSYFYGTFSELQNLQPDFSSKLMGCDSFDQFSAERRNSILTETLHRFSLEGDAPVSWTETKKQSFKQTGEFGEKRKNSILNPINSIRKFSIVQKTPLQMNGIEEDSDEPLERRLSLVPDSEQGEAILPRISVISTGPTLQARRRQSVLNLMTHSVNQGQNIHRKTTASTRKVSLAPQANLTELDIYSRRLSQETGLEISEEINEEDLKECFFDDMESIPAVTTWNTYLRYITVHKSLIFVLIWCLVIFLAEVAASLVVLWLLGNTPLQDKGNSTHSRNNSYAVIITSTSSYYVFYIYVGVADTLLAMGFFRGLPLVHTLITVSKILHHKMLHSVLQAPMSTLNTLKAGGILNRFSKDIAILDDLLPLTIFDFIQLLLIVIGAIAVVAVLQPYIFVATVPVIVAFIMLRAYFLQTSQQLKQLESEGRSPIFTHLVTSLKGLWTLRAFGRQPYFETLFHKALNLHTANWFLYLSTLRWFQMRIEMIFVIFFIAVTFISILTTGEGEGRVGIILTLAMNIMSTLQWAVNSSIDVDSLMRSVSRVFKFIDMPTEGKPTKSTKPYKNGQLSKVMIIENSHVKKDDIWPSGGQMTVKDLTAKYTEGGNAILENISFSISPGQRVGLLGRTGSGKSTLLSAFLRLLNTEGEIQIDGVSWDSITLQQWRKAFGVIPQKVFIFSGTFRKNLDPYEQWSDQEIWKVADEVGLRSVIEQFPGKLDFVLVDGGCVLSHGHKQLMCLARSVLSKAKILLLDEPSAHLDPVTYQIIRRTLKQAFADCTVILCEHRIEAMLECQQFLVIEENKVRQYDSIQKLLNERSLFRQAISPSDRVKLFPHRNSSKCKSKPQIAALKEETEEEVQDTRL

In the case of `CC(C)(C)c1cc([Si](C)(C)C)c(O)cc1NC(=O)c1c[nH]c2ccccc2c1=O` [Compound 1, N-[2-tert-Butyl-5-hydroxy-4-(trimethylsilyl)phenyl]-4-oxo-1,4-dihydroquinoline-3-carboxamide], the Activity result is recorded as “++ (activity >200% of a corrector (VX-809 (3 uM)) with compound at 1 uM)”.
As for `CC[Si](C)(C)c1cc(C(C)(C)C)c(NC(=O)c2c[nH]c3ccccc3c2=O)cc1O` [Compound 2, N-[2-tert-Butyl-4-(ethyldimethylsilyl)-5-hydroxyphenyl]-4-oxo-1,4-dihydroquinoline-3-carboxamide], the Activity entry is reported as “++ (activity >200% of a corrector (VX-809 (3 uM)) with compound at 1 uM)”.
The entry for `CC[Si](C)(CC)c1cc(C(C)(C)C)c(NC(=O)c2c[nH]c3ccccc3c2=O)cc1O` [Compound 3, N-[2-tert-Butyl-4-[diethyl(methyl)silyl]-5-hydroxyphenyl]-4-oxo-1,4-dihydroquinoline-3-carboxamide] is “++ (activity >200% of a corrector (VX-809 (3 uM)) with compound at 1 uM)”; for `CC[Si](CC)(CC)c1cc(C(C)(C)C)c(NC(=O)c2c[nH]c3ccccc3c2=O)cc1O` [Compound 4, N-(2-(tert-Butyl)-5-hydroxy-4-(triethylsilyl)phenyl)-4-oxo-1,4-dihydroquinoline-3-carboxamide] it is “+ (activity <200% of a corrector (VX-809 (3 uM)) with compound at 1 uM)”.
The entry for `CC(C)(C)c1cc([Si](C)(C)C(C)(C)C)c(O)cc1NC(=O)c1c[nH]c2ccccc2c1=O` [Compound 5, N-(2-tert-Butyl-4-(tert-butyldimethylsilyl)-5-hydroxyphenyl)-4-oxo-1,4-dihydroquinoline-3-carboxamide] is “++ (activity >200% of a corrector (VX-809 (3 uM)) with compound at 1 uM)”; for `CC(C)[Si](C)(C)c1cc(C(C)(C)C)c(NC(=O)c2c[nH]c3ccccc3c2=O)cc1O` [Compound 6, N-[2-tert-Butyl-4-[dimethyl(propan-2-yl)silyl]-5-hydroxyphenyl]-4-oxo-1,4-dihydroquinoline-3-carboxamide] it is “++ (activity >200% of a corrector (VX-809 (3 uM)) with compound at 1 uM)”; for `CC(C)(C)c1cc([Si](C)(C)c2ccccc2)c(O)cc1NC(=O)c1c[nH]c2ccccc2c1=O` [Compound 7, N-(2-(tert-Butyl)-4-(dimethyl(phenyl)silyl)-5-hydroxyphenyl)-4-oxo-1,4-dihydroquinoline-3-carboxamide] it is “++ (activity >200% of a corrector (VX-809 (3 uM)) with compound at 1 uM)”.
Next, `CC(C)(C)c1cc([Si](C)(C)C)c(NC(=O)c2c[nH]c3ccccc3c2=O)cc1O` [Compound 8, N-[4-tert-Butyl-5-hydroxy-2-(trimethylsilyl)phenyl]-4-oxo-1,4-dihydroquinoline-3-carboxamide]: “++ (activity >200% of a corrector (VX-809 (3 uM)) with compound at 1 uM)”; `CC(C)(C)c1cc([Si](C)(C)C(C)(C)C)c(NC(=O)c2c[nH]c3ccccc3c2=O)cc1O` [Compound 10, N-(4-(tert-Butyl)-2-(tert-butyldimethylsilyl)-5-hydroxyphenyl)-4-oxo-1,4-dihydroquinoline-3-carboxamide]: “++ (activity >200% of a corrector (VX-809 (3 uM)) with compound at 1 uM)”; `C[Si](C)(C)c1cc([Si](C)(C)C)c(NC(=O)c2c[nH]c3ccccc3c2=O)cc1O` [Compound 11, N-(5-Hydroxy-2,4-bis(trimethylsilyl)phenyl)-4-oxo-1,4-dihydroquinoline-3-carboxamide]: “++ (activity >200% of a corrector (VX-809 (3 uM)) with compound at 1 uM)”.
For `[2H]C([2H])([2H])[Si](c1cc(C(C)(C)C)c(NC(=O)c2c[nH]c3ccccc3c2=O)cc1O)(C([2H])([2H])[2H])C([2H])([2H])[2H]` [Compound 12, N-(2-(tert-Butyl)-5-hydroxy-4-(tris(methyl-d3)silyl)phenyl)-4-oxo-1,4-dihydroquinoline-3-carboxamide], the Activity entry is “++ (activity >200% of a corrector (VX-809 (3 uM)) with compound at 1 uM)”.
Next, `[2H]C([2H])([2H])[Si](c1cc([Si](C([2H])([2H])[2H])(C([2H])([2H])[2H])C([2H])([2H])[2H])c(NC(=O)c2c[nH]c3ccccc3c2=O)cc1O)(C([2H])([2H])[2H])C([2H])([2H])[2H]` [Compound 13, N-(5-Hydroxy-2,4-bis(tris(methyl-d3)silyl)phenyl)-4-oxo-1,4-dihydroquinoline-3-carboxamide]: “++ (activity >200% of a corrector (VX-809 (3 uM)) with compound at 1 uM)”.
Next, `C[Si](C)(C)c1ccc(NC(=O)c2c[nH]c3ccccc3c2=O)cc1O` [Compound 17, N-(3-Hydroxy-4-(trimethylsilyl)phenyl)-4-oxo-1,4-dihydroquinoline-3-carboxamide]: “++ (activity >200% of a corrector (VX-809 (3 uM)) with compound at 1 uM)”; `C[Si](C)(C)c1cc(F)c(NC(=O)c2c[nH]c3ccccc3c2=O)cc1O` [Compound 18, N-(2-Fluoro-5-hydroxy-4-(trimethylsilyl)phenyl)-4-oxo-1,4-dihydroquinoline-3-carboxamide]: “++ (activity >200% of a corrector (VX-809 (3 uM)) with compound at 1 uM)”; `C[Si](C)(C)c1cc(C(F)(F)F)c(NC(=O)c2c[nH]c3ccccc3c2=O)cc1O` [Compound 19, N-(5-Hydroxy-2-(trifluoromethyl)-4-(trimethylsilyl)phenyl)-4-oxo-1,4-dihydroquinoline-3-carboxamide]: “++ (activity >200% of a corrector (VX-809 (3 uM)) with compound at 1 uM)”.
